Test results as given in patent US9428477B2, “Trans-2-decenoic acid derivative and drug containing same” (NIPPON ZOKI PHARMACEUTICAL CO., LTD., priority 2012, dated 2016).

Tested on: rats with paclitaxel-induced peripheral nerve disorder
Test: Rat peripheral nerve disorder induced by paclitaxel, von Frey test
Format: in vivo
Details: ip, test drug intraperitoneally, single dose, higher of values 1 and 5 hours after administration, mechanical stimulus of right hind limb, normal threshold 15, read-out: Recovery Rate of 50% Reaction Threshold Value
Protocol: The effects of the compounds of the present invention were evaluated for a peripheral nerve disorder which is a side effect induced by the administration of an anti-cancer agent paclitaxel, such as hyperesthesia including allodynia induced by mechanical stimuli, which is a severe pain induced by such tactile stimuli which usually cause no pains. The compound of the present invention was intraperitoneally administered to rats as a test drug to conduct a von Frey test.
Male SD rats of six weeks age (six rats per group) were used as experimental animals, and paclitaxel (2 mg/kg) was intraperitoneally administered every other day for four times in total to prepare rats with paclitaxel-induced peripheral nerve disorder. During the period of 18 to 25 days or during the period of 20 to 27 days after the initiation of paclitaxel administration, the test drug was intraperitoneally administered in a single dose of […], and the following von Frey test was conducted.
The rats of the above (1) were placed in a transparent acrylic cage with a wire-meshed floor and habituated for about three minutes, and the 50% reaction threshold values to the mechanical stimulus of right hind limb were measured before administration of the test drug and after 1 and 5 hours from the initiation of the administration.
The measurement was conducted using von Frey filaments (manufactured by North Coast Medical Inc.) in accordance with the methods of Chaplan, et al. (Journal of Neuroscience Methods, 53(1), 55-63, 1994) and Dixon, et al. (Annual Review of Pharmacology and Toxicology, 20, 441-462, 1980). […] The case where the rat escaped at the instance of removing the filament was also called positive. When the positive reaction was found, stimulus was applied similarly with a filament of one rank weaker, and in the absence of the reaction, stimulus was similarly applied with a filament of one rank stronger, and a point where the reaction changed from negative to positive or from positive to negative was called the first two reactions. Subsequently, stimuli were applied for continuously four times by the same up-down method. A 50% reaction threshold value to the mechanical stimulus was measured using the reaction to the six stimuli in total and then (mean value)±(standard error) for each group was calculated. Incidentally, when stimulus reached to a load of 15.0 g without positive reaction, or when positive reaction continued to a load of 0.4 g, 15.0 g or 0.25 g was adopted as each of 50% reaction threshold values. With regard to the higher 50% reaction threshold value between the 50% threshold values after 1 hour and 5 hours from administration of a test drug, a recovery rate (%) of the 50% reaction threshold value was calculated by the following expression in which 15 was taken as a normal threshold value.
Recovery rate (%) of 50% reaction threshold value=[(50% reaction threshold value after 1 hour or 5 hours from administration of test drug)−(50% reaction threshold value before administration of test drug)]/[(Normal threshold value)−(50% reaction threshold value before administration of test drug)]×100
Molecule `CCCCCCC/C=C/C(=O)N1CCN(C)CC1` [Compound 19, 1-((E)-2-Decenoyl)-4-methylpiperazine] has a change in vivo at 0.3 mg/kg of 19.8%. Work on `CCCCCCC/C=C/C(=O)N1CCN(c2ccc(Cl)cc2)CC1` [Compound 41, 1-((E)-2-Decenoyl)-4-(4-chlorophenyl)piperazine] yielded a change in vivo at 0.3 mg/kg of 81.5%. `CCCCCCC/C=C/C(=O)N1CCN(c2ccc(OC)cc2)CC1` [Compound 42, 1-((E)-2-Decenoyl)-4-(4-methoxyphenyl)piperazine] gave a change in vivo at 0.3 mg/kg of 45.8%. For `CCCCCCC/C=C/C(=O)N1CCN(c2ccc(F)cc2)CC1` [Compound 44, 1-((E)-2-Decenoyl)-4-(4-fluorophenyl)piperazine], the change in vivo at 0.3 mg/kg was 42.6%. Molecule `CCCCCCC/C=C/C(=O)N1CCN(CC(=O)O)CC1.Cl` [Compound 39, [4-[(E)-2-Decenoyl]piperazin-1-yl]acetic acid hydrochloride] has a change in vivo at 0.3 mg/kg of 16.6%. For `CCCCCCC/C=C/C(=O)N1CCN(c2ccncc2)CC1` [Compound 29, 1-((E)-2-Decenoyl)-4-(pyridin-4-yl)piperazine], the change in vivo at 0.3 mg/kg was 42.8%. `CCCCCCC/C=C/C(=O)N1CCCN(CCN(C)C)CC1` [Compound 34, 1-((E)-2-Decenoyl)-4-(2-dimethylaminoethyl)-[1,4]diazepane] gave a change in vivo at 0.3 mg/kg of 35.5%. Work on `CCCCCCC/C=C/C(=O)N1CCOCC1` [Compound 17, 4-((E)-2-Decenoyl)morpholine] yielded a change in vivo at 0.3 mg/kg of 30.6%. `CCCCCCC/C=C/C(=O)N1CCN(c2ccccn2)CC1` [Compound 30, 1-((E)-2-Decenoyl)-4-(pyridin-2-yl)piperazine] showed a change in vivo at 0.3 mg/kg of 22.6%. Molecule `CCCCCCC/C=C/C(=O)N1CCC(c2ccccc2)CC1` [Compound 16, 1-((E)-2-Decenoyl)-4-phenylpiperidine] has a change in vivo at 0.3 mg/kg of 38.6%. With `CCCCCCC/C=C/C(=O)N1CCN(c2ccc(C)cc2)CC1` [Compound 43, 1-((E)-2-Decenoyl)-4-(4-methylphenyl)piperazine] the change in vivo at 0.3 mg/kg was 31.3%. `CCCCCCC/C=C/C(=O)N1CCC(O)CC1` [Compound 8, 1-((E)-2-Decenoyl)-4-hydroxypiperidine] gave a change in vivo at 0.3 mg/kg of 49.7%. Molecule `CCCCCCC/C=C/C(=O)N1CCC(CCN(C)C)CC1` [Compound 15, 1-((E)-2-Decenoyl)-4-(2-dimethylaminoethyl)piperidine] has a change in vivo at 0.3 mg/kg of 34.2%. With `CCCCCCC/C=C/C(=O)N1CCCN(C)CC1` [Compound 33, 1-((E)-2-Decenoyl)-4-methyl-[1,4]diazepane] the change in vivo at 0.3 mg/kg was 33.4%. With `CCCCCCC/C=C/C(=O)N1CCN(c2ccc(OCC(=O)O)cc2)CC1` [Compound 47, 2-[4-[4-((E)-2-Decenoyl)piperazin-1-yl]phenoxy]acetic acid] the change in vivo at 0.3 mg/kg was 54.5%. Work on `CCCCCCC/C=C/C(=O)N1CCC(c2ccc(Cl)cc2)CC1` [Compound 38, 1-((E)-2-Decenoyl)-4-(4-chlorophenyl)piperidine] yielded a change in vivo at 0.3 mg/kg of 55.5%. With `CCCCCCC/C=C/C(=O)N1CCN(c2ncccn2)CC1` [Compound 31, 1-((E)-2-Decenoyl)-4-(pyrimidin-2-yl)piperazine] the change in vivo at 0.3 mg/kg was 22.9%. With `CCCCCCC/C=C/C(=O)N1CCC(C#N)CC1` [Compound 37, 1-((E)-2-Decenoyl)-4-cyanopiperidine] the change in vivo at 0.3 mg/kg was 22.4%. In the case of `CCCCCCC/C=C/C(=O)N1CCCCCC1` [Compound 32, 1-((E)-2-Decenoyl)azepane], the change in vivo at 0.3 mg/kg is reported as 51.1%. In the case of `CCCCCCC/C=C/C(=O)N1CCC(OC)CC1` [Compound 9, 1-((E)-2-Decenoyl)-4-methoxypiperidine], the change in vivo at 0.3 mg/kg is reported as 35.6%. Molecule `CCCCCCC/C=C/C(=O)N1CCN(c2ccccc2Cl)CC1` [Compound 45, 1-((E)-2-Decenoyl)-4-(2-chlorophenyl)piperazine] has a change in vivo at 0.3 mg/kg of 33.3%. With `CCCCCCC/C=C/C(=O)N1CCC(CCC(=O)O)CC1` [Compound 36, 3-(1-((E)-2-Decenoyl)-4-piperidyl)propanoic acid] the change in vivo at 0.3 mg/kg was 42%.

Tested on: not given
Test: not given
Details: not given
With `CCCCCCC/C=C/C(=O)N1CCN(c2ccc(OC)cc2)CC1` [Compound 42, 1-((E)-2-Decenoyl)-4-(4-methoxyphenyl)piperazine] the melting point was 50 to 52 °C. In the case of `CCCCCCC/C=C/C(=O)N1CCN(CC(=O)O)CC1.Cl` [Compound 39, [4-[(E)-2-Decenoyl]piperazin-1-yl]acetic acid hydrochloride], the melting point is reported as 195 °C (dec.). With `CCCCCCC/C=C/C(=O)N1CCN(c2ccc(C)cc2)CC1` [Compound 43, 1-((E)-2-Decenoyl)-4-(4-methylphenyl)piperazine] the melting point was 45 to 46 °C. In the case of `CCCCCCC/C=C/C(=O)N1CCN(c2ccc(OCC(=O)O)cc2)CC1` [Compound 47, 2-[4-[4-((E)-2-Decenoyl)piperazin-1-yl]phenoxy]acetic acid], the melting point is reported as 210 °C (dec.).
